In general, Kd refers to the constant that tells how readily two partners part at equilibrium. The low end stands for higher affinity, the high end for lower affinity.

The target in one assay is FLT3 kinase (Homo sapiens (Human), UniProt P36888). The assay can be described thus: Competition binding assay (Kd), FLT3.
The target in the next assay is KIT kinase (Homo sapiens (Human), UniProt P10721). The assay can be described thus: Competition binding assay (Kd), KIT. The procedure: In certain embodiments, competition binding assays were performed as described in Fabian et al., Nature Biotechnology 2005, 23, 329-336.
Sequence of KIT kinase (P10721 26-976): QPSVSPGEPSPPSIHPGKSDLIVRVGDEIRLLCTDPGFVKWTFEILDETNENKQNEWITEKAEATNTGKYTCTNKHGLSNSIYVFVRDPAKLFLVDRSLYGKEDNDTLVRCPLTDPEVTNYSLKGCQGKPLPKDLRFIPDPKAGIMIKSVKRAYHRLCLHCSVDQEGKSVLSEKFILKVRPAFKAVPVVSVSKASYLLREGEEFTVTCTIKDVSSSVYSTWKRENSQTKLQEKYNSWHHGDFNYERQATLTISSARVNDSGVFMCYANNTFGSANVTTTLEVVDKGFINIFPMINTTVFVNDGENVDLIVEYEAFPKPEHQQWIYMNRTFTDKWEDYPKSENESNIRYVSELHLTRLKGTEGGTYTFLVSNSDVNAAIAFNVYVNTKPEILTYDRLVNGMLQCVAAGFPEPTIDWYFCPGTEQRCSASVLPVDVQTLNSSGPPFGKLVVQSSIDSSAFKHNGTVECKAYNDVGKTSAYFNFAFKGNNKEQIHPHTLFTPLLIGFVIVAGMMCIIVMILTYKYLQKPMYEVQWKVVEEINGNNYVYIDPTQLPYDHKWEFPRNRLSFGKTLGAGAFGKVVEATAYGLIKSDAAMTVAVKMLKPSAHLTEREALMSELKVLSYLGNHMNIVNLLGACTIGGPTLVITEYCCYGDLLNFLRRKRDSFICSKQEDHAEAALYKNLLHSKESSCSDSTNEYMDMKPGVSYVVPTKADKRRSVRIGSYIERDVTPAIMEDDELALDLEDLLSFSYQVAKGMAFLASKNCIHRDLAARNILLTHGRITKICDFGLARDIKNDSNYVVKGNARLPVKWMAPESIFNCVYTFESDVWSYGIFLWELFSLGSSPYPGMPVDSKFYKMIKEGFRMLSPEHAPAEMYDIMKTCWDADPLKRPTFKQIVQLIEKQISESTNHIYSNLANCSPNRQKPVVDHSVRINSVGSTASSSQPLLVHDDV
Competition binding assays used herein were developed, validated and performed as described in Fabian et al., Nature Biotechnology 2005, 23, 329-336. Kinases were produced as fusions to T7 phage (See, Fabian et al. or WO04/015142) or alternatively, the kinases were expressed in HEK-293 cells and subsequently tagged with DNA for PCR detection (See, WO08/005,310). […] The liganded beads were blocked with excess biotin and washed with blocking buffer (SeaBlock (Pierce), 1% BSA, 0.05% Tween 20, 1 mM DTT) to remove unbound ligand and to reduce non-specific binding. […] Test compounds were prepared as 100× stocks in DMSO and diluted into the aqueous environment. Kds were determined using an eleven point threefold serial dilutions. DMSO or control compounds were was added to control assays lacking a test compound. […] The kinase concentration in the eluates was measured by quantitative PCR. […]

Sequence of FLT3 kinase (P36888 27-993): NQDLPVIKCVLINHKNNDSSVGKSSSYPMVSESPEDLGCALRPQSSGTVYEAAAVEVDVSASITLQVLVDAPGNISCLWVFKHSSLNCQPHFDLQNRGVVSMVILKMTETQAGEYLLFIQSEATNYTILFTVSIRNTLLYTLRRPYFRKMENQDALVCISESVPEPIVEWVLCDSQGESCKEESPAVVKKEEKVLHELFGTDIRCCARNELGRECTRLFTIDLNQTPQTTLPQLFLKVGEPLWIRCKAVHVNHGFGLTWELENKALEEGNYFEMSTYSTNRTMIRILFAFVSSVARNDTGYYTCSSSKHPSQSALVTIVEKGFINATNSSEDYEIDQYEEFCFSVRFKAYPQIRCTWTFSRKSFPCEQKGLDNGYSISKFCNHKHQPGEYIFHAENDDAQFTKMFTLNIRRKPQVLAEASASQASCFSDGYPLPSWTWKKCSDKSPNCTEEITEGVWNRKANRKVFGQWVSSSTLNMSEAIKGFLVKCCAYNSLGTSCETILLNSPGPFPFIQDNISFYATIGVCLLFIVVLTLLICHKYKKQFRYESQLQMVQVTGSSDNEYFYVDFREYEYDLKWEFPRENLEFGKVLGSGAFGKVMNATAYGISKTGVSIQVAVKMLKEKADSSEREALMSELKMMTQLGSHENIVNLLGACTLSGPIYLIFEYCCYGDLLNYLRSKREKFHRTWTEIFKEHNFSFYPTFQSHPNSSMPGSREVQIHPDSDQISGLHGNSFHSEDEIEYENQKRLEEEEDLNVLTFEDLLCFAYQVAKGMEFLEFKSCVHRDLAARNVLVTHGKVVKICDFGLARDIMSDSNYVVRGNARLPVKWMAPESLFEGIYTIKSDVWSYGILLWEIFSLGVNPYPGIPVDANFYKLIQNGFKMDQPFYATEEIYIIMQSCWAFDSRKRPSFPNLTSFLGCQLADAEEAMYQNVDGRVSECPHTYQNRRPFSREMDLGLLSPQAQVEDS

On to `COc1cc2ncc(-c3ccc(CC(=O)Nc4cc(C(C)(C)C(F)(F)F)on4)c(F)c3)nc2cc1OCCN1CC[C@H](O)C1` [Example 191, 2-[2-fluoro-4-[7-[2-[(3S)-3-hydroxypyrrolidin-1-yl]ethoxy]-6-methoxy-quinoxalin-2-yl]phenyl]-N-[5-(2,2,2-trifluoro-1,1-dimethyl-ethyl)isoxazol-3-yl]acetamide], for which the Kd at FLT3 kinase (competition binding) and at KIT kinase (competition binding) was below 5 nM each time.
For `COc1cc2nc(-c3ccc(CC(=O)Nc4cc(C5(C(F)(F)F)CC5)on4)c(F)c3)cnc2cc1OCCN1CCO[C@@H](C)C1` [Example 248, 2-[2-fluoro-4-[7-methoxy-6-[2-[(2S)-2-methylmorpholin-4-yl]ethoxy]quinoxalin-2-yl]phenyl]-N-[5-[1-(trifluoromethyl)cyclo-propyl]isoxazol-3-yl]acetamide], the Kd on FLT3 kinase (competition binding) and at KIT kinase (competition binding) was below 5 nM in each case.
As for `COc1cc2nc(-c3ccc(CC(=O)Nc4cc(C5(C(F)(F)F)CC5)on4)c(F)c3)cnc2cc1OCC(C)(C)O` [Example 249, 2-[2-fluoro-4-[6-(2-hydroxy-2-methyl-propoxy)-7-methoxy-quinoxalin-2-yl]phenyl]-N-[5-[1-(trifluoro-methyl)cyclopropyl]isoxazol-3-yl]acetamide], the Kd at FLT3 kinase (competition binding) and at KIT kinase (competition binding) was below 5 nM throughout.
With `CCN1CCN(CCOc2cc3ncc(-c4ccc(CC(=O)Nc5cc(C6(C(F)(F)F)CC6)on5)c(F)c4)nc3cc2OC)CC1` [Example 105, 2-[4-[6-[2-(4-ethylpiperazin-1-yl)ethoxy]-7-methoxy-quinoxalin-2-yl]-2-fluoro-phenyl]-N-[5-[1-(trifluoromethyl)cyclo-propyl]isoxazol-3-yl]acetamide], the Kd on FLT3 kinase (competition binding assay) and on KIT kinase (competition binding assay) was below 5 nM throughout.
Regarding `COc1cc2nc(-c3ccc(CC(=O)Nc4cc(C(C)(C)C(F)(F)F)on4)cc3)cnc2cc1OCCN1CCOCC1` [Example 93, 2-(4-(7-methoxy-6-(2-morpholinoethoxy)quinoxalin-2-yl)phenyl)-N-(5-(1,1,1-trifluoro-2-methylpropan-2-yl)isoxazol-3-yl)acetamide], the Kd on FLT3 kinase (competition binding assay) and on KIT kinase (competition binding assay) was below 5 nM each time.
For `COc1cc2cc(-c3ccc(CC(=O)Nc4cc(C(C)(C)C(F)(F)F)on4)c(F)c3)cnc2cc1OCCN1CCOCC1` [Example 197, 2-[2-fluoro-4-[6-methoxy-7-(2-morpholinoethoxy)-3-quinolyl]phenyl]-N-[5-(2,2,2-trifluoro-1,1-dimethyl-ethyl)isoxazol-3-yl]acetamide], the Kd at FLT3 kinase (competition binding) and on KIT kinase (competition binding) was below 5 nM each time.
Consider `COc1cc2ncc(-c3ccc(CC(=O)Nc4cc(C5(C(F)(F)F)CC5)on4)c(F)c3)nc2cc1OCCCNC(C)=O` [Example 214, 2-[4-[7-(3-acetamidopropoxy)-6-methoxy-quinoxalin-2-yl]-2-fluoro-phenyl]-N-[5-[1-(trifluoromethyl)cyclo-propyl]isoxazol-3-yl]acetamide], for which the Kd at FLT3 kinase (competition binding) and on KIT kinase (competition binding) was below 5 nM in each case.
With `COc1cc2ncc(-c3ccc(CC(=O)Nc4cc(C(C)(C)C(F)(F)F)on4)c(F)c3)cc2cc1OCCO` [Example 178, 2-[2-fluoro-4-[6-(2-hydroxyethoxy)-7-methoxy-3-quinolyl]phenyl]-N-[5-(2,2,2-trifluoro-1,1-dimethyl-ethyl)isoxazol-3-yl]acetamide], the Kd on FLT3 kinase (competition binding assay) and at KIT kinase (competition binding assay) was below 5 nM in each case.
`COc1cc2ncc(-c3ccc(CC(=O)Nc4cc(C5(C(F)(F)F)CC5)on4)c(F)c3)nc2cc1OCCCN1CCOCC1` [Example 213, 2-[2-fluoro-4-[6-methoxy-7-(3-morpholino-propoxy)quinoxalin-2-yl]phenyl]-N-[5-[1-(trifluoro-methyl)cyclopropyl]isoxazol-3-yl]acetamide]: the Kd at FLT3 kinase (competition binding) and at KIT kinase (competition binding) was below 5 nM throughout.
For `COc1cc2ncc(-c3ccc(CC(=O)Nc4cc(C(C)(C)C(F)(F)F)on4)c(F)c3)cc2cc1OCCN1CC[C@H](O)[C@@H](F)C1` (stereo in doubt) [Example 87, 2-(2-Fluoro-4-{6-[2-(3-fluoro-4-hydroxy-piperidin-1-yl)-ethoxy]-7-methoxy-quinolin-3-yl}-phenyl)-N-[5-(2,2,2-trifluoro-1,1-dimethyl-ethyl)-isoxazol-3-yl]-acetamide], the Kd at FLT3 kinase (competition binding assay) and on KIT kinase (competition binding assay) was below 5 nM throughout.
`COc1cc2nc(-c3ccc(CC(=O)Nc4cc(C5(C(F)(F)F)CC5)on4)c(F)c3)cnc2cc1OCCCNC(C)=O` [Example 237, 2-[4-[6-(3-acetamidopropoxy)-7-methoxy-quinoxalin-2-yl]-2-fluoro-phenyl]-N-[5-[1-(trifluoromethyl)cyclo-propyl]isoxazol-3-yl]acetamide]: the Kd on FLT3 kinase (competition binding) and on KIT kinase (competition binding) was below 5 nM throughout.
With `COc1cc2nc(-c3ccc(CC(=O)Nc4cc(C5(C(F)(F)F)CC5)n[nH]4)c(F)c3)cnc2cc1OCCN1CCOCC1` [Example 230, 2-[2-fluoro-4-[7-methoxy-6-(2-morpholino-ethoxy)quinoxalin-2-yl]phenyl]-N-[3-[1-(trifluoro-methyl)cyclopropyl]-1H-pyrazol-5-yl]acetamide], the Kd at FLT3 kinase (competition binding) and at KIT kinase (competition binding) was below 5 nM in each case.
Consider `COc1cc2nc(-c3ccc(CC(=O)Nc4cc(C5(C(F)(F)F)CC5)on4)c(F)c3)cnc2cc1OCCN1CCS(=O)(=O)CC1` [Example 216, 2-[4-[6-[2-(1,1-dioxo-1,4-thiazinan-4-yl)ethoxy]-7-methoxy-quinoxalin-2-yl]-2-fluoro-phenyl]-N-[5-[1-(trifluoromethyl)cyclo-propyl]isoxazol-3-yl]acetamide], for which the Kd at FLT3 kinase (competition binding) and on KIT kinase (competition binding) was below 5 nM each time.
As to `CC(=O)NCCOc1cc2ncc(-c3ccc(CC(=O)Nc4cc(C(C)(C)C(F)(F)F)on4)c(F)c3)nc2cc1OCCNC(C)=O` [Example 220, 2-[4-[6,7-bis(2-acetamidoethoxy)quinoxalin-2-yl]-2-fluoro-phenyl]-N-[5-(2,2,2-trifluoro-1,1-dimethyl-ethyl)isoxazol-3-yl]acetamide], the Kd at FLT3 kinase (competition binding) and on KIT kinase (competition binding) was below 5 nM each time.
Take `COc1cc2nc(-c3ccc(CC(=O)Nc4cc(C5(C(F)(F)F)CC5)on4)c(F)c3)cnc2cc1OCCN1CCNCC1` [Example 241, 2-[2-fluoro-4-[7-methoxy-6-(2-piperazin-1-ylethoxy)quinoxalin-2-yl]phenyl]-N-[5-[1-(trifluoromethyl)cyclo-propyl]isoxazol-3-yl]acetamide]: the Kd at FLT3 kinase (competition binding) and at KIT kinase (competition binding) was below 5 nM in each case.
For the compound `COc1cc2nc(-c3ccc(CC(=O)Nc4cc(C5(C(F)(F)F)CC5)on4)c(F)c3)cnc2cc1C(C)(O)CO` (centres unmarked) [Example 233, 2-[4-[6-(1,2-dihydroxy-1-methyl-ethyl)-7-methoxy-quinoxalin-2-yl]-2-fluoro-phenyl]-N-[5-[1-(trifluoro-methyl)cyclopropyl]isoxazol-3-yl]acetamide], the Kd at FLT3 kinase (competition binding) and at KIT kinase (competition binding) was below 5 nM each time.
For the compound `COc1cc2ncc(-c3ccc(CC(=O)Nc4cc5n(n4)CCC5(C)C)c(F)c3)nc2cc1OC` [Example 194, 2-[4-(6,7-dimethoxyquinoxalin-2-yl)-2-fluoro-phenyl]-N-(4,4-dimethyl-5,6-dihydropyrrolo[1,2-b]pyrazol-2-yl)acetamide], the Kd on FLT3 kinase (competition binding) and on KIT kinase (competition binding) was below 5 nM each time.
On to `COc1cc2nc(-c3ccc(CC(=O)Nc4cc(C5(C(F)(F)F)CC5)on4)c(F)c3)cnc2cc1OCCN1CCC(F)(F)C1` [Example 82, 2-(4-(6-(2-(3,3-difluoropyrrolidin-1-yl)ethoxy)-7-methoxyquinoxalin-2-yl)-2-fluorophenyl)-N-(5-(1-(trifluoromethyl)cyclopropyl)isoxazol-3-yl)acetamide], for which the Kd at FLT3 kinase (competition binding assay) and on KIT kinase (competition binding assay) was below 5 nM in each case.
`COc1cc2nc(-c3ccc(CC(=O)Nc4cc(C5(C(F)(F)F)CC5)on4)c(F)c3)cnc2cc1OCCN1CCOC[C@@H]1C` [Example 243, 2-[2-fluoro-4-[7-methoxy-6-[2-[(3S)-3-methylmorpholin-4-yl]ethoxy]quinoxalin-2-yl]phenyl]-N-[5-[1-(trifluoromethyl)cyclo-propyl]isoxazol-3-yl]acetamide]: the Kd on FLT3 kinase (competition binding) and on KIT kinase (competition binding) was below 5 nM throughout.
For the compound `COc1cc2nc(-c3ccc(CC(=O)Nc4cc(C5(C(F)(F)F)CC5)on4)c(F)c3)cnc2cc1OCCCS(C)(=O)=O` [Example 222, 2-[2-fluoro-4-[7-methoxy-6-(3-methylsulfonyl-propoxy)quinoxalin-2-yl]phenyl]-N-[5-[1-(trifluoromethyl)cyclo-propyl]isoxazol-3-yl]acetamide], the Kd at FLT3 kinase (competition binding) and on KIT kinase (competition binding) was below 5 nM throughout.
Regarding `COc1cc2nc(-c3ccc(CC(=O)Nc4cc(C5(C(F)(F)F)CC5)on4)c(F)c3)cnc2cc1OCCN(C)C(C)=O` [Example 176, 2-[4-[6-[2-[acetyl(methyl)amino]ethoxy]-7-methoxy-quinoxalin-2-yl]-2-fluoro-phenyl]-N-[5-[1-(trifluoromethyl)cyclo-propyl]isoxazol-3-yl]acetamide], the Kd at FLT3 kinase (competition binding assay) and on KIT kinase (competition binding assay) was below 5 nM throughout.
As for `COc1cc2nc(-c3ccc(CC(=O)Nc4cc(C5(C(F)(F)F)CC5)on4)c(F)c3)cnc2cc1OCC(=O)N(C)C` [Example 186, 2-[4-[6-[2-(dimethylamino)-2-oxo-ethoxy]-7-methoxy-quinoxalin-2-yl]-2-fluoro-phenyl]-N-[5-[1-(trifluoro-methyl)cyclopropyl]isoxazol-3-yl]acetamide], the Kd on FLT3 kinase (competition binding) and on KIT kinase (competition binding) was below 5 nM each time.

Source of the values: US9725465B2, “Biaryl acetamide compounds and methods of use thereof” (Ambit Biosciences Corporation, priority 2013, dated 2017).
